Test results as given in patent US20210113568A1, “PREVENTIVE AND/OR THERAPEUTIC AGENT FOR AUTOIMMUNE DISEASE COMPRISING COMPOUND HAVING Btk INHIBITORY ACTIVITY AS ACTIVE INGREDIENT” (ONO PHARMACEUTICAL CO., LTD., priority 2018, published 2021).

Tested on: human neutrophils
Assay: Measurement of activation of human neutrophils (NETs formation, SYTOX Green fluorescence, immune complex stimulation)
Type: cell-based
Settings: Neutrophil, immobilized HSA/anti-HSA immune complex, 1 hour preincubation, 4 hours at 37° C.
Method: Human serum albumin (HSA) (Sigma) was immobilized on a 96-well plate and anti-HSA antibody (Sigma) was added to form an immune complex. Blocking was performed with 10% fetal bovine serum (FBS), and the plate was then used for neutrophil activation.
Various compounds having a Btk inhibitory activity were used as the test compounds. The test compound was dissolved in DMSO and dilution with RPMI 1640 culture medium (10% FBS, contained 1% penicillin/streptomycin) was then performed to prepare a test compound solution with a concentration 11-times that of the final concentration. 180 μL of a culture medium-diluted human neutrophil suspension was added to 20 μL of the 11×-concentration test compound solution, or the medium (1.1% DMSO), and incubation was performed for 1 hour at room temperature.
20 μL of a 50 μM SYTOX Green solution (Thermo Fisher Scientific Inc.) was then added to the plate bearing the immobilized immune complex; 180 μL (1×10^5 cells/well) of the test compound-treated neutrophil suspension was added; and incubation was carried out for 4 hours at 37° C. and 5% CO2. The relative fluorescence units of the SYTOX Green bound to NETs from the neutrophils were measured using a microplate reader (Molecular Devices) and conditions of an excitation wavelength of 475 nm and a fluorescence wavelength of 523 nm. The percent inhibition (%) for the test compound was calculated using the formula given below. The percent inhibition (%) was graphically plotted using Prism (ver. 5.04, GraphPad Software) and the IC50 value was determined.
A: relative fluorescence units when the test compound was added B: relative fluorescence units at the time of stimulation C: relative fluorescence units without stimulation

SMILES	IC50 [nM]	IC50 (unit given as M) [nM]
Cc1c(-c2c(F)cc(C(N)=O)c3[nH]c4c(c23)CC[C@H](C(C)(C)O)C4)cccc1-n1c(=O)c2cccc(F)c2n(C)c1=O [BMS-986142]	44	–
CC#CC(=O)N1CCC[C@H]1c1nc(-c2ccc(C(=O)Nc3ccccn3)cc2)c2c(N)nccn12 [acalabrutinib]	84	–
C=CC(=O)N1CCC(CNc2ncnc(N)c2-c2ccc(Oc3ccccc3)cc2)CC1 [evobrutinib]	–	57
C[C@H]1CN(C2COC2)CCN1c1ccc(Nc2cc(-c3ccnc(N4CCn5c(cc6c5CC(C)(C)C6)C4=O)c3CO)cn(C)c2=O)nc1 [fenebrutinib]	62	–
C=CC(=O)N1CCC[C@@H](n2nc(-c3ccc(Oc4ccccc4)cc3)c3c(N)ncnc32)C1 [ibrutinib]	3.6	–
CC#CC(=O)N1CC[C@@H](n2c(=O)n(-c3ccc(Oc4ccccc4)cc3)c3c(N)ncnc32)C1 [tirabrutinib, 6-amino-9-[(3R)-1-(buta-2-ynoyl)pyrrolidin-3-yl]-7-(4-phenoxyphenyl)-7,9-dihydro-8H-purin-8-one]	22	–
